Experimental data reported in PMC10899662, “TopBP1 utilises a bipartite GINS binding mode to support genome replication” (Nature Communications, 2024).

B1: TopBP1-BRCT0-5: 6Myc-TEV2-tagged TopBP1-BRCT0-5 expressed in 293T cells (protein)
chain: MSRNDKEPFFVKFLKSSDNSKCFFKALESIKEFQSEEYLQIITEEEALKIKENDRSLYICDPFSGVVFDHLKKLGCRIVGPQVVIFCMHHQRCVPRAEHPVYNMVMSDVTISCTSLEKEKREEVHKYVQMMGGRVYRDLNVSVTHLIAGEVGSKKYLVAANLKKPILLPSWIKTLWEKSQEKKITRYTDINMEDFKCPIFLGCIICVTGLCGLDRKEVQQLTVKHGGQYMGQLKMNECTHLIVQEPKGQKYECAKRWNVHCVTTQWFFDSIEKGFCQDESIYKTEPRPEAKTMPNSSTPTSQINTIDSRTLSDVSNISNINASCVSESICNSLNSKLEPTLENLENLDVSAFQAPEDLLDGCRIYLCGFSGRKLDKLRRLINSGGGVRFNQLNEDVTHVIVGDYDDELKQFWNKSAHRPHVVGAKWLLECFSKGYMLSEEPYIHANYQPVEIPVSHKPESKAALLKKKNSSFSKKDFAPSEKHEQADEDLLSQYENGSSTVVEAKTSEARPFNDSTHAEPLNDSTHISLQEENQSSVSHCVPDVSTITEEGLFSQKSFLVLGFSNENESNIANIIKENAGKIMSLLSRTVADYAVVPLLGCEVEATVGEVVTNTWLVTCIDYQTLFDPKSNPLFTPVPVMTGMTPLEDCVISFSQCAGAEKESLTFLANLLGASVQEYFVRKSNAKKGMFASTHLILKERGGSKYEAAKKWNLPAVTIAWLLETARTGKRADESHFLIENSTKEERSLETEITNGINLNSDTAEHP
modifications: left off: Strep, C-terminal, kept
notes: 6Myc-TEV2-tagged TopBP1-BRCT0-5 expressed in 293T cells

Assays:
[1] = tested on: TopBP1-proximal proteins (Psf3, Psf2); experiment: APEX2 proximity biotinylation, streptavidin pulldown and mass spectrometry; format: cell-based, human; conditions: three proximity biotinylation experiments; + H2O2 vs - H2O2; four biological replicates
Protocol: Proximity labelling was performed in isogenic stable 293 Flip-In (Thermo Fisher; R75007) cells stably expressing TopBP1 N-terminal tagged with APEX2 or in 293T cells transiently expressing either N-terminal or C-terminally APEX2-tagged TopBP1. 24 h before transfection, 0.8 × 10^6 cells were seeded onto a 6-cm plate. For each condition, four dishes were separately transfected (biological replicates). One day after transfection, cells were incubated for 30 min with 500 µM biotin phenol at 37 °C, before incubation for 1 min at RT with or without (controls) 1 mM H2O2. The medium was discarded, and cells were washed three times with quenching buffer (10 mM sodium azide, 10 mM sodium ascorbate and 5 mM Trolox in Dulbecco’s PBS (Life Technologies 14190169). Cells were rinsed off the dishes with DPBS, transferred into reaction tubes before washing again with DPBS. Cells were lysed at 95 °C for 10 min in TSD buffer (50 mM Tris pH 7.5, 5 mM DTT and 1% SDS). Samples were diluted ten times with TNN buffer (20 mM Tris pH 7.9, 200 mM NaCl and 0.5% NP-40 alternative) and benzonase (75 U per sample) (Sigma E1014). Samples were incubated for 15 min at 4 °C and centrifuged at 21,000 × g for 2 min at 4 °C. Supernatants were incubated over night with 15 µl streptavidin sepharose beads (Sigma GE17-5113-01) at 4 °C. […]

Sld5 = experiment: Myc immunoprecipitation from transfected 293T cells, Sld5 co-IP; format: binding; conditions: transiently transfected 293T cell lysates, anti-Myc
Protocol: Transient transfections of 6xMyc-Tev2-TopBP1 into 293T cells (ATCC CRL-11268) were carried out using PEI (polyethyleneimine) according to a protocol kindly shared by David Cortez’ lab. 4 µg plasmid DNA in 100 µl DMEM (Thermofisher, 41965039) without penicillin-streptomycin were combined with 2.4 µl Polyethylenimin (Sigma, 408727; 10 mg/ml) and incubated for 20 min before addition to 4 × 10^6 cells on a 10-cm dish. Transfected cells were used 72 h post transfection. 72 h post transfection, 293T cells were lysed by douncing in ten times cell pellet volume of lysis buffer (20 mM HEPES pH 8.0, 150 mM NaCl, 0.1% (v/v) Tween-20, 0.5 mM TCEP, 2% (v/v) glycerol, protease inhibitor cocktail (Roche, Complete protease inhibitor cocktail, 05056489001)), and centrifuged at 20,000 × g for 15 min at 4 °C. The soluble supernatant was added to magnetic anti-Myc beads (5 µl slurry per sample; Thermofischer, 88842) and incubated for 2 h at 4 °C rotating. Cells equivalent to 50% of a 15 cm dish were used per sample. Beads were washed three times in lysis buffer with 5 min incubation each, and finally boiled in 50 µl Laemmli loading buffer (6.5% glycerol, 715 mM β-mercaptoethanol, 3% SDS, 62.5 mM Tris-HCl pH 7.9, 0.005% bromphenol blue).
Non-APEX2-bio=nylated samples (-H2O2) were used as controls. […] Immunoprecipitated TopBP1 was detected using Ponceau (Ponc.) staining. […]

| Molecule | enrichment of Psf3 upon streptavidin pulldown [1] | Sld5 co-immunoprecipitation (Sld5) |
| --- | --- | --- |
| APEX2-tagged TopBP1: N- or C-terminally APEX2-tagged TopBP1 | specific enrichment of Psf3 | – |
| B1 | – | weak but specific signal |
